Literature values as cited in patent US20180168149A1, “INSECTICIDAL COMPOSITIONS” (HOMS, LLC, priority 2015, published 2018).

Test system: male rats

C=C(C)[C@H]1CC=C(C)CC1 [d-limonene]
tumors on chronic exposure: significant incidence of renal tubular tumors
